These results are taken from PubChem BioAssay AID2610 (Broad Institute, 2010).

Inconclusive results are not listed. The source made the active and inactive calls.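 The calls were made as follows: active = EC50 no more than tenfold above the top concentration tested, with valid fit and all samples agreeing; inconclusive = flat fit at 30 to 70% inhibition, poor fit, or split samples; inactive = EC50 beyond tenfold the top concentration tested.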

This test deals with BJeLR fibroblast viability, Alamar Blue fluorescence, 48 h. In words: cytotoxicity toward RAS-transformed BJeLR fibroblasts, dose response, cell-based, alamar blue fluorescence, 48 h, cherrypicked samples (AID 2610).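 Also: BJ fibroblasts with hTERT plus SV40 large and small T and HRAS V12; EC50 for loss of viable cells so potency reflects cytotoxic compounds.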 Background: Resazurin is reduced to fluorescent resorufin, in cell work by metabolically active cells.
Usually EC50 stands for the concentration that produces a half-maximal response. As to `CCOc1ccc(C(=O)c2cc([N+](=O)[O-])ccc2N2CCOCC2)cc1`, the EC50 is under 104 nM.
For the compound `O=Cc1cc2ccccc2nc1SCc1ccc(Cl)cc1`, the EC50 is under 104 nM.
Take `COc1cccc(/C=C2\SC(=S)N(CCCC(=O)N(CCO)c3ccccc3)C2=O)c1`: the EC50 was 2530 nM.
On to `C[C@H]1O[C@@H](O[C@H]2[C@@H](O)C[C@H](O[C@H]3[C@@H](O)C[C@H](O[C@H]4CC[C@@]5(C)[C@H](CC[C@@H]6[C@@H]5C[C@@H](O)[C@]5(C)[C@@H](C7=CC(=O)OC7)CC[C@]65O)C4)O[C@@H]3C)O[C@@H]2C)C[C@H](O)[C@@H]1O`, for which the EC50 was under 104 nM.
Take `CC1CN(S(=O)(=O)c2ccc(C(=O)NCCCn3ccnc3)cc2)CC(C)O1` (stereo not drawn): the EC50 is 436 nM.
With `Cc1ccccc1OCC(O)CNC1CCC(NCC(O)COc2ccccc2C)CC1` (stereo not drawn) the figure was 582 nM; with `c1cnc2c(c1)ccc1cccnc12`, 5560 nM; with `COc1cccc2c1C(=O)c1c(O)c3c(c(O)c1C2=O)C[C@@](O)(C(=O)CO)C[C@@H]3O[C@H]1C[C@H](N)[C@@H](O)[C@H](C)O1`, under 104 nM.
Turning to `O=C(CSc1ccccn1)NCc1ccc2c(c1)OCO2`, the EC50 was > 13300 nM (inactive).
In the case of `CCc1nc(N)nc(N)c1-c1ccc(Cl)cc1` it was > 13300 nM (inactive); in that of `CCCCOc1ccc(Br)cc1/C(C)=N/NC1=NCCN1`, 585 nM.
With `O=C(N/N=C/c1ccccc1Cl)c1[nH]c2ccc(Br)cc2c1-c1ccccc1` the figure was 149 nM; with `COc1ccc(F)cc1CN1CCN(C(=O)CCC(=O)Nc2nnc(CC(C)C)s2)CC1`, > 13300 nM (inactive); with `Nc1nc(F)nc2c1ncn2[C@@H]1O[C@H](CO)[C@@H](O)[C@H]1O`, 151 nM.
As for `CC1(C)N=C(N)N=C(N)N1c1ccccc1`, the EC50 was > 13300 nM (inactive).
`C(=N\Nc1nncc2ccccc12)/c1ccccn1`: the EC50 was 3340 nM.
In the case of `Cc1ccc(C(=O)Sc2cccccc2=O)cc1` it was under 62.4 nM; in that of `COc1ccccc1-c1nnc2sc(-c3ccc(N(C)C)cc3)nn12`, under 104 nM.
Regarding `CCc1ccc(/C=C2/SC(=S)N(CCC(=O)NCCCN3CCOCC3)C2=O)cc1`, the EC50 is 2420 nM.
Consider `Cc1occc1C(=O)N/N=C/c1ccc(-c2ccccc2)cc1`, for which the EC50 was > 13300 nM (inactive).
Turning to `CCN1C(=O)C(=Cc2cccc(OC)c2Oc2ccc([N+](=O)[O-])cc2[N+](=O)[O-])SC1=S`, the EC50 was 1050 nM.
For `COc1ccc(C(C(=O)NC2CCCCC2)N(C(=O)CCl)c2cccc(Cl)c2)cc1` (stereo not drawn), the EC50 was under 73.2 nM.
With `CCN(CC)c1ccc(/C=N/NC(=O)c2nnn(-c3nonc3N)c2C(C)C)c(O)c1`, the EC50 is 565 nM.
In the case of `COc1ccc2c(C)nc(Nc3nc(-c4ccccc4)cc(=O)[nH]3)nc2c1`, the EC50 was 1200 nM.
For `Clc1ccccc1Nc1nnc(-c2ccncc2)s1`, the EC50 was > 13300 nM (inactive).
In the case of `COc1cc2c(cc1OC)C(c1cc(Br)ccc1F)N(C(=O)CCl)CC2` (stereo not drawn) it was 1310 nM.
With `COc1ccccc1N(C(=O)CCl)c1cn(C(C)=O)c2ccccc12` the figure was 717 nM.
Consider `O=C1c2cccc3cc([N+](=O)[O-])cc(c23)C(=O)N1CCN1CCCC1`, for which the EC50 was 409 nM.
With `CCOc1ccc2c(c1)C(C)=CC(C)(C)N2S(=O)(=O)c1ccc(NC(C)=O)cc1`, the EC50 was under 104 nM.
For the compound `O=C(/C=C/c1ccc(F)cc1)NNC(=O)CCN1CCN(Cc2ccccc2)CC1`, the EC50 was > 13300 nM (inactive).
In the case of `O=S(=O)(c1ccc(NC(=S)NCc2cccnc2)cc1)N1CCCCC1` it was under 133 nM; in that of `CCN1/C(=C/c2ccc3ccccc3[n+]2CC)C=Cc2ccccc21`, 726 nM.
Consider `O=S(=O)(c1ccc(Cl)cc1)c1snnc1-c1ccccc1`, for which the EC50 is 594 nM.
`O=C(Nc1nc2ccccc2[nH]1)c1ccccc1F`: the EC50 is > 13300 nM (inactive).
In the case of `COc1ccc(C(=O)N/N=C(\C)c2ccccn2)cc1OC` it was 795 nM; in that of `Cc1cccc(Nc2nc(N)nc(CCl)n2)c1`, 2210 nM.
In the case of `Cc1cccc2cc(C#N)c(SCC(=O)N3CC(=O)Nc4ccccc43)nc12` it was under 104 nM; in that of `O=C(NCc1cccnc1)c1ccc(NC(=O)c2ccc([N+](=O)[O-])cc2)cc1`, 1420 nM; in that of `COc1ccc(OC)c2sc(N(CCCN(C)C)C(=O)c3ccc(S(=O)(=O)N4CCc5ccccc5C4)cc3)nc12`, 108 nM.
In the case of `COc1cccc2c1C(=O)c1c(O)c3c(c(O)c1C2=O)C[C@@](O)(C(=O)CO)C[C@@H]3O[C@H]1C[C@H](N)[C@H](O)[C@H](C)O1`, the EC50 was under 104 nM.
On to `CCOc1ccc(C2=Nn3c(nnc3-c3ccccc3OC)SC2)cc1`, for which the EC50 is under 104 nM.
Consider `CCN(CC)c1ccc(/C=N/NC(=O)c2ccco2)c(O)c1`, for which the EC50 was 804 nM.
As for `Cc1ccc(N=Cc2c(C)[nH]n(-c3nc4ccccc4[nH]3)c2=O)cc1`, the EC50 is > 13300 nM (inactive).
`COc1ccc(OC)c2c1C(=O)C(Cl)=C(Cl)C2=O`: the EC50 was 2980 nM.
Regarding `CCN1/C(=C\C=C\C2=[N+](CC)c3ccccc3C2(C)C)C(C)(C)c2ccccc21`, the EC50 was 239 nM.
With `O=[N+]([O-])c1ccc(N=Nc2ncc[nH]2)cc1`, the EC50 was 2370 nM.
As to `CC1C/C(=C/c2ccncc2)C(=O)/C(=C/c2ccncc2)C1` (stereo not drawn), the EC50 was 400 nM.
For the compound `CCC1=Nc2cc(C(=O)NCc3ccco3)ccc2Sc2ccc(C)cc21`, the EC50 was under 104 nM.
With `CN(Cc1cnc2nc(N)nc(N)c2n1)c1ccc(C(=O)N[C@@H](CCC(=O)O)C(=O)O)cc1` the figure was > 13300 nM (inactive).
On to `COc1ccc(C2=CC(=O)C=CC2=O)cc1`, for which the EC50 was > 13300 nM (inactive).
Consider `NS(=O)(=O)c1ccc(NC(=O)c2cc(-c3cccs3)nc3ccccc23)cc1`, for which the EC50 is > 13300 nM (inactive).
Take `CCc1ccc(/C=C2/SC(=S)N(CCC(=O)Nc3cccnc3)C2=O)cc1`: the EC50 was 2750 nM.
`COc1cc(SC)ccc1C(=O)Nc1nc2ccccc2[nH]1`: the EC50 is > 13300 nM (inactive).
With `CCN(CC)c1ccc2c(cc1=O)[C@@H](NC)CCc1cc(OC)c(OC)c(OC)c1-2` the figure was 380 nM; with `CCOCCOC(=O)c1[nH]c2c(c1C)C(=O)CC(c1ccccc1)C2` (stereo not drawn), 262 nM.
Regarding `Cc1ccc(Nc2nc(N)nc(CCl)n2)c(C)c1`, the EC50 was 388 nM.
As to `COc1ccc(/C=N/NC(=O)c2[nH]c3ccc(Br)cc3c2-c2ccccc2)cc1`, the EC50 was under 70.3 nM.
Regarding `Cn1cnc(Sc2ncnc3nc[nH]c23)c1[N+](=O)[O-]`, the EC50 was > 13300 nM (inactive).
Regarding `CC(C)c1onc(C(=O)N2CCN(C(c3ccccc3)c3ccccc3)CC2)c1[N+](=O)[O-]`, the EC50 is 522 nM.
In the case of `COc1ccc(COC(=O)c2cc([N+](=O)[O-])ccc2N2CCOCC2)cc1F` it was under 104 nM; in that of `Nc1nc(CCl)nc(Nc2cccc3ccccc23)n1`, 493 nM.
Consider `N#CCc1ccc(NC(=O)/C=C/c2ccc([N+](=O)[O-])o2)cc1`, for which the EC50 is 1100 nM.
With `CCc1ccc(CCC(=O)Nc2ncc(Cc3ccccc3Cl)s2)o1` the figure was 1060 nM.
For the compound `CC1=CC(C)(C)N(S(=O)(=O)c2ccc(C)cc2)c2cc(C)ccc21`, the EC50 is 386 nM.
As to `CCOC(=O)c1[nH]c(C)c(C(=O)N2CCc3ccccc32)c1C`, the EC50 was under 104 nM.
Consider `C#CCOc1ccc(C2C3=C(COC3=O)Nc3cc4c(cc32)OCO4)cc1OC` (stereo not drawn), for which the EC50 was under 104 nM.
Regarding `Cc1ccc(/C=N/NC(=O)c2n[nH]c3c2CCCC3)cc1`, the EC50 is under 104 nM.
For the compound `CC1(C)C[C@H]2C=C(C=O)[C@]3(C=O)C[C@]3(C)[C@H]2C1`, the EC50 is 580 nM.
With `Cc1sc2ncnc(N/N=C/c3ccccc3O)c2c1C` the figure was 3700 nM.
In the case of `COc1cc(C2c3cc4c(cc3C(OC3OC5COC(c6cccs6)OC5C(O)C3O)C3COC(=O)C23)OCO4)cc(OC)c1O` (stereo not drawn) it was 129 nM; in that of `CC(=O)Nc1ccc(NC(=O)CN(c2cccc([N+](=O)[O-])c2)S(C)(=O)=O)cc1`, 1410 nM; in that of `COc1cc(/C=C/c2ccc3cccc(O)c3n2)cc(OC)c1OC`, 3370 nM.
Take `CCCCCCCCCC[n+]1cccc2c3ccccc3ccc21`: the EC50 is 8030 nM.
